Entries after “also recorded” stand apart in the source; their conditions may differ. Structures can show the parent of a compound that is named as a salt.
These compounds were tested against T1, CYP1A2 (Homo sapiens, UniProt P05177) (assay: in vitro). Details: 1 μM active ingredient, Rh CYP1A2-mediated phenacetin O-deethylation, test dataset of 202 herb ingredients.
T1 sequence (P05177 1-516): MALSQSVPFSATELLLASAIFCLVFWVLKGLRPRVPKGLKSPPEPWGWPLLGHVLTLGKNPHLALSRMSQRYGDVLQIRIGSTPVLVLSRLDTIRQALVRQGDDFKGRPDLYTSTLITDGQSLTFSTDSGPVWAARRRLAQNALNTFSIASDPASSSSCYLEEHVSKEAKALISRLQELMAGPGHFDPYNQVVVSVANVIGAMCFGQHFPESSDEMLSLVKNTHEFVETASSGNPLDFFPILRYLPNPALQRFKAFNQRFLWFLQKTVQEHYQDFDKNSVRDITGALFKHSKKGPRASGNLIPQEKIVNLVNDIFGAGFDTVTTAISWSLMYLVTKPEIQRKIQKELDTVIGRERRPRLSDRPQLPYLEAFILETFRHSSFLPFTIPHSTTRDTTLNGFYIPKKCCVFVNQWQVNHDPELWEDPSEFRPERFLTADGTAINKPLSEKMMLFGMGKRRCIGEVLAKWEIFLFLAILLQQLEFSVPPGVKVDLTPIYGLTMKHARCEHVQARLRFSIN
Type: biochemical
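Note: recombinant CYP1A2 incubated for 1 h at 37 °C, with the reaction started by an NADPH-generating system.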

| Compound | % of Control Indication Activity (Mean) [%] |
| --- | --- |
| COc1cc2c(cc1OC)[C@@H](Cc1ccc(O)c(Oc3cc4c(cc3OC)CCN(C)[C@@H]4Cc3ccc(O)cc3)c1)N(C)CC2 [Liensinine] | > 90 |
| Echinacoside | > 90 |
| COc1ccc(-c2oc3cc(OC)c(OC)c(O)c3c(=O)c2OC)cc1O [Vitexicarpin] | > 90 |
| COC[C@]12CN(C)[C@@H]3[C@@H]4[C@H](OC)[C@H]1[C@@]3([C@@H](OC)C[C@H]2O)[C@@H]1C[C@@]2(O)[C@H](OC(=O)c3ccccc3)[C@@H]1[C@]4(OC(C)=O)[C@@H](O)[C@@H]2OC [Mesaconitine] | > 90 |
| COc1ccc([C@H]2OC[C@H]3[C@@H]2CO[C@H]3c2ccc(O[C@@H]3O[C@H](CO)[C@@H](O)[C@H](O)[C@H]3O)c(OC)c2)cc1OC [Forsythin] | > 90 |
| O=C1CCC[C@@H]2[C@H]3CCC[N@+]4([O-])CCC[C@@H](CN12)[C@@H]34 [Ammothamnine] | > 90 |
| COc1ccc(-c2cc(=O)c3c(O)cc(O[C@@H]4O[C@H](CO[C@@H]5O[C@@H](C)[C@H](O)[C@@H](O)[C@H]5O)[C@@H](O)[C@H](O)[C@H]4O)cc3o2)cc1 [Linarin] | > 90 |

Same assay, conditions: 1 μM test compound, 25 μM phenacetin, average of duplicate determinations

| % of Control Indication Activity [%] | Compound |
| --- | --- |
| >90 | OC[C@H]1O[C@@H](Oc2cc(O)cc(/C=C/c3ccc(O)cc3)c2)[C@H](O)[C@@H](O)[C@@H]1O [zhang 713, Piceid] |

Same assay, conditions: 1 μM test concentration; listed as 616

| Compound | inhibitory activity to CYP1A2 (10% or greater inhibition at 1 μM) |
| --- | --- |
| COc1cc(C[C@H]2COC(=O)[C@@H]2Cc2ccc(O)c(OC)c2)ccc1O [zhang 616, (+)-Matairesinol] | found to have inhibition of CYP1A2 activity; also recorded: confirmed to have inhibitory activities to CYP1A2 |

Same assay, conditions: human, recombinant enzyme, pH 7.4

| activity at 1 h, 1 μM [%] | Compound |
| --- | --- |
| > 90 | C[C@@H]1O[C@@H](Oc2cc(O)c3c(=O)c(O)c(-c4ccc(O)cc4)oc3c2O)[C@H](O)[C@H](O)[C@H]1O [Rhodionin] |
| 86.8 | COc1ccc2ccc(=O)oc2c1CC=C(C)C [Osthole] |
| > 90 | CNCC(O)c1ccc(O)cc1 (centres unmarked) [Synephrine] |
| > 90 | OC[C@H]1O[C@@H](OCCc2ccc(O)cc2)[C@H](O)[C@@H](O)[C@@H]1O [Salidroside] |
| > 90 | O=C(O)/C=C/c1ccccc1 [Cinnamic acid] |
| > 90 | C[C@@H]1O[C@@H](Oc2c(-c3ccc(O)cc3)oc3cc(O)cc(O)c3c2=O)[C@H](O)[C@H](O)[C@H]1O [zhang 911, Kaempferol-3-O-α-L-rhamnopyranoside] |

| Compound | activity at 1 h, 1 μM [%] |
| --- | --- |
| O=c1ccc2cc(O)c(O)cc2o1 [Esculetin] | > 90 |
| O=c1c(O[C@@H]2O[C@H](CO)[C@H](O)[C@H](O)[C@H]2O)c(-c2ccc(O)c(O)c2)oc2cc(O)cc(O)c12 [Hyperoside] | > 90 |

Same assay, conditions: human, recombinant enzyme, pH 7.4; 1 μM active ingredient, Rh CYP1A2-mediated phenacetin O-deethylation, test dataset of 202 herb ingredients; read-out: % of Control Indication Activity (Mean)

| activity at 1 h, 1 μM [%] | Compound |
| --- | --- |
| > 90 | COc1cc2c[n+](C)c3c4cc5c(cc4ccc3c2cc1OC)OCO5 [Nitidine] |

Same assay, conditions: human, recombinant human CYP1A2, pH 7.4, probe phenacetin (25 μM), O-deethylation to acetaminophen; 1 μM active ingredient, Rh CYP1A2-mediated phenacetin O-deethylation, test dataset of 202 herb ingredients; read-out: % of Control Indication Activity (Mean)

| activity at 1 h, 1 μM [%] | Compound |
| --- | --- |
| > 90 | CC12CCC(CC1)C(C)(C)O2 [Eucalyptol] |
| > 90 | CC1CCC(C(C)C)C(O)C1 (centres unmarked) [Menthol] |
| > 90 | COc1cc(-c2coc3cc4c(c(OC)c3c2=O)OCO4)cc(OC)c1OC [Irisflorentin] |
| > 90 | O=c1c(-c2ccc(O[C@@H]3O[C@H](CO)[C@@H](O)[C@H](O)[C@H]3O)cc2)coc2cc(O)cc(O)c12 [Sophoricoside] |
| > 90 | COc1cc2ccc(=O)oc2cc1O [Scopoletin] |
| > 90 | CC(C)=CCC[C@](C)(O[C@@H]1O[C@H](CO)[C@@H](O)[C@H](O)[C@H]1O)[C@H]1CC[C@]2(C)[C@@H]1[C@H](O)C[C@@H]1[C@@]3(C)CC[C@H](O)C(C)(C)[C@@H]3[C@@H](O[C@@H]3O[C@H](CO)[C@@H](O)[C@H](O)[C@H]3O[C@@H]3O[C@@H](C)[C@H](O)[C@@H](O)[C@H]3O)C[C@]12C [Ginsenoside Re] |
| > 90 | COC(=O)C1=CO[C@@H](O[C@@H]2O[C@H](CO)[C@@H](O)[C@H](O)[C@H]2O)[C@@H]2[C@@H](C)[C@@H](O)C[C@H]12 [Loganin] |
| > 90 | COc1c(O[C@@H]2O[C@H](CO)[C@@H](O)[C@H](O)[C@H]2O)cc2occ(-c3ccc(O)cc3)c(=O)c2c1O [Tectoridin] |
| > 90 | COc1ccc(C=O)c(O)c1 [4-Methoxysalicylaldehyde] |
| > 90 | CC(C)=CCC[C@](C)(O[C@@H]1O[C@H](CO[C@@H]2O[C@H](CO)[C@@H](O)[C@H](O)[C@H]2O)[C@@H](O)[C@H](O)[C@H]1O)[C@H]1CC[C@]2(C)[C@@H]1[C@H](O)C[C@@H]1[C@@]3(C)CC[C@H](O[C@@H]4O[C@H](CO)[C@@H](O)[C@H](O)[C@H]4O[C@@H]4O[C@H](CO)[C@@H](O)[C@H](O)[C@H]4O)C(C)(C)[C@@H]3CC[C@]12C [Ginsenoside Rb1] |
| 87.4 | O=c1cc(-c2ccc(O)c(O)c2)oc2cc(O)cc(O)c12 [Luteolin] |
| > 90 | COc1cc2ccc(=O)oc2c(O)c1O [Fraxetin] |
| > 90 | COc1cc2c(cc1OC)[C@@H]1Cc3ccc(OC)c(OC)c3CN1CC2 [Tetrahydropalmatine] |
| > 90 | C=C1C(=O)O[C@@H]2/C=C(\C)CC/C=C(\C)CC[C@@H]12 [Costunolide] |
| > 90 | O=C1Nc2ccccc2/C1=C1/Nc2ccccc2C1=O [Indirubin] |
| > 90 | C[C@@]1(CO)C[C@@H](O)C[C@@]2(C)[C@@H]3CC[C@](C)([C@@H](O)CO)C=C3CC[C@H]12 [Kirenol] |

| Compound | activity at 1 h, 1 μM [%] |
| --- | --- |
| O=c1cc(-c2ccc(O)cc2)oc2c([C@@H]3O[C@H](CO)[C@@H](O)[C@H](O)[C@H]3O)c(O)cc(O)c12 [Vitexin] | > 90 |
| O=C(O)[C@H]1O[C@@H](Oc2cc3oc(-c4ccc(O)cc4)cc(=O)c3c(O)c2O)[C@H](O)[C@@H](O)[C@@H]1O [Scutellarin] | > 90 |
| CC(C)=C1CC[C@@H](C)CC1=O [Pulegone] | > 90 |

Same assay, conditions: human, recombinant human CYP1A2, pH 7.4, probe phenacetin (25 μM), O-deethylation to acetaminophen; 1 μM test compound, 25 μM phenacetin, average of duplicate determinations; read-out: % of Control Indication Activity

| activity at 1 h, 1 μM [%] | Compound |
| --- | --- |
| > 90 | COc1cc(C2Oc3c(ccc4ccc(=O)oc34)O[C@H]2CO)ccc1O (some centres unmarked) [zhang 271, 5′-demethoxy Daphneticin] |

Same assay, conditions: recombinant enzyme

| Compound | % of Control Indication Activity (Mean) |
| --- | --- |
| CC1(C)CC[C@]2(C(=O)O)CC[C@]3(C)C(=CC[C@@H]4[C@@]5(C)CC[C@H](O[C@@H]6O[C@H](C(=O)O)[C@@H](O)[C@H](O[C@@H]7OC[C@@H](O)[C@H](O)[C@H]7O)[C@H]6O)C(C)(C)[C@@H]5CC[C@]43C)[C@@H]2C1 [Momordin Ic] | > 90 |
| COc1cc(/C=C/C(=O)OCC[N+](C)(C)C)cc(OC)c1O [Sinapine] | > 90 |

Same assay, conditions: recombinant enzyme, pH 7.4

| Compound | activity [%] |
| --- | --- |
| CN1[C@@H]2CC[C@H]1C[C@@H](OC(=O)C(CO)c1ccccc1)C2 (some centres unmarked) [Atropine Sulfate] | > 90 |

Same assay, conditions: recombinant enzyme, pH 7.4; 1 μM active ingredient, Rh CYP1A2-mediated phenacetin O-deethylation, test dataset of 202 herb ingredients; read-out: % of Control Indication Activity (Mean)

| Compound | activity at 1 h, 1 μM [%] | activity [%] |
| --- | --- | --- |
| C[C@]12CC[C@H](O)C[C@H]1CC[C@@H]1[C@@H]2CC[C@]2(C)[C@@H](c3ccc(=O)oc3)C[C@H]3O[C@]132 [Resibufogenin] | > 90 |  |
| COC[C@@]12CC[C@H](OC)[C@]34C(C([C@H](OC)[C@H]13)[C@]1(OC(C)=O)[C@H]3[C@@H](OC(=O)c5ccccc5)[C@](O)(C[C@H]34)[C@@H](OC)[C@@H]1O)N(C)C2 [Hypaconitine] |  | > 90 |
| C[C@@]12C(=O)OC(=O)[C@]1(C)[C@H]1CC[C@@H]2O1 [Cantharidin] | > 90 |  |
| N#C[C@H](O[C@@H]1O[C@H](CO[C@@H]2O[C@H](CO)[C@@H](O)[C@H](O)[C@H]2O)[C@@H](O)[C@H](O)[C@H]1O)c1ccccc1 [Amygdalin] |  | > 90 |
| CC1(C)CC[C@]2(C(=O)O)CC[C@]3(C)C(=CC[C@@H]4[C@@]5(C)CC[C@H](O)C(C)(C)[C@@H]5CC[C@]43C)[C@@H]2C1 [Oleanol ic acid] | > 90 |  |
| CC(C)(C)[C@]1(O)CC2OC(=O)CC23C(=O)OC2OC(=O)[C@H](O)C231 (some centres unmarked) [Bilobalide] | > 90 |  |
| COc1cc2c3c(c1OC)-c1ccccc1C[C@H]3N(C)CC2 [Nuciferine] |  | 85.5 |
| COC(=O)C1=CO[C@@H](O[C@@H]2O[C@H](CO)[C@@H](O)[C@H](O)[C@H]2O)[C@@H]2C(CO)=CC[C@H]12 [Geniposide] |  | > 90 |
| CCN1C[C@]2(COC)[C@H](O)C[C@H](OC)[C@@]34[C@@H]5C[C@@]6(O)[C@H](OC(=O)c7ccccc7)[C@@H]5[C@@](OC(C)=O)([C@@H]([C@H](OC)[C@H]23)[C@@H]14)[C@@H](O)[C@@H]6OC [Aconitine] | > 90 |  |
| O=C1C[C@@H]2OCC=C3CN4CC[C@]56c7ccccc7N1[C@H]5[C@H]2[C@H]3C[C@H]46 [Strychnine] | > 90 |  |
| COC(=O)C1=CCCN(C)C1 [Arecoline] |  | > 90 |
| OCc1ccc(O[C@@H]2O[C@H](CO)[C@@H](O)[C@H](O)[C@H]2O)cc1 [Gastrodin] |  | > 90 |
